Data reported in patent US9573911B2, “Diphosphate mimetics and uses thereof” (President and Fellows of Harvard College, priority 2011, dated 2017).

Key:
[1] = molecular target: T1, OGT (Homo sapiens, UniProt O15294); test: Time-dependent inactivation of OGT with BZX compounds; type: biochemical
T1 construct: hOGT4.5 construct (spanning residues 313-1031 based on the numbering of the full length human protein); made in house
T1 sequence (O15294 313-1031 isoform O15294-3): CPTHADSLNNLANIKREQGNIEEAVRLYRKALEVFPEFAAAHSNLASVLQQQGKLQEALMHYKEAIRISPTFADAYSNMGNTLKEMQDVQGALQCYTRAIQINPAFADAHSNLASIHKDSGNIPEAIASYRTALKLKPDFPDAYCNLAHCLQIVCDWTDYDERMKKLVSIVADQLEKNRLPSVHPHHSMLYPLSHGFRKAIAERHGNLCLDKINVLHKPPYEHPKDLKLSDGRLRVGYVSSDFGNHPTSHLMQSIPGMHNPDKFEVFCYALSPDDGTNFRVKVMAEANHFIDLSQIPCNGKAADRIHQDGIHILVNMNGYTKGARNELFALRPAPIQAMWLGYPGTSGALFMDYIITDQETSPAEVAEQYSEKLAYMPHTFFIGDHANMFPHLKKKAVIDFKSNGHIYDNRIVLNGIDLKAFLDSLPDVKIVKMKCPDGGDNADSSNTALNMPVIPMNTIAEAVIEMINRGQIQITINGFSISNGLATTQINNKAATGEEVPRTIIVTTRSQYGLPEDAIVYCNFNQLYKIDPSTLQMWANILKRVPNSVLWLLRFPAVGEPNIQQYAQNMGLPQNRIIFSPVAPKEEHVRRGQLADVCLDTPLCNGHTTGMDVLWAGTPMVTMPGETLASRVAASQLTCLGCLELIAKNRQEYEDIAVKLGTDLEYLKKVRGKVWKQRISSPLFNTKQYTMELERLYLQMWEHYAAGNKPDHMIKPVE
Source text: Compound (1) was identified in a high-throughput screen of 65,000 compounds (FIG. 1). See, e.g., Gross et al., J. Am. Chem. Soc. (2005) 127:14588-14589. It contains a dicarbamate moiety that links two aromatic groups. This compound features a conjugated chemical structure and both carbamate carbonyls are potentially reactive. See, e.g., Alexander et al., Chem. Biol. (2005) 12:1179-1187. […] A small panel of related compounds was made from commercially available building blocks in order to identify structural features that might improve potency. Time-dependent inactivation studies were carried out in which OGT was preincubated with a three-fold excess of each compound for 5 min, and the mixture was then diluted 100-fold into buffer containing UDP-^14C-GlcNAc and the well-characterized peptide substrate, CKII. See, e.g., Kreppel et al., J. Biol. Chem. (1999) 274:32015-32022). Enzyme activity was measured using a previously developed peptide capture assay. See, e.g., Gross et al., J. Am. Chem. Soc. (2005) 127:14588-14589.
Each BZX compound (7.5 μM) was preincubated with 5 μM OGT in reaction buffer (125 mM NaCl, 1 mM EDTA, 20 mM potassium phosphate, pH 7.4, and 500 μM tris(hydroxypropyl)phosphine (THP)) at room temperature for different amount of time, then diluted 100-fold, mixed with substrates (6 μM UDP-^14C-GlcNAc and 500 μM CKII peptide (KKKYPGGSTPVSSANMM)) and allowed to react for another 2 h. Enzyme activity was tested with the peptide capture assay as previously reported. See, e.g., Gross et al., J. Am. Chem. Soc. (2005) 127:14588-14589. The final volume of each reaction was 20 μl, and the experiments were conducted in triplicate. The activities of OGT mutants were also tested in triplicate as previously reported. See, e.g., Gross supra.

[2] = molecular target: T1, OGT; test: IC50 assay, OGT peptide-capture assay; type: biochemical; settings: peptide-capture assay, different concentrations of each compound, read-out: IC50 Values
Description: IC50 Assay of Thiocarbamate to OGT.
Enzyme activity was tested with the peptide-capture assay in the presence of different concentrations of each compound as previously reported (J. Am. Chem. Soc. 2005, 127, 14588-14589).

IC50 [2]	inactivation time course of OGT ([1]; 1.5:1 inhibitor:enzyme ratio)	SMILES	OGT enzyme activity after preincubation with compound ([1]; three-fold excess of compound, 5 min preincubation, then diluted 100-fold)
> 100 µM		O=C(Oc1ccccc1)n1c(=O)oc2ccccc21 [Compound 5]	
~100 µM	no inhibition	COc1ccc2c(c1)oc(=O)n2C(=O)Oc1ccccc1 [Compound 6]	

Continued, molecule first:

SMILES	IC50 [2]	inactivation time course of OGT ([1]; 1.5:1 inhibitor:enzyme ratio)	OGT enzyme activity after preincubation with compound ([1]; three-fold excess of compound, 5 min preincubation, then diluted 100-fold)
COc1ccc(OC(=O)n2c(=O)oc3cc(C(C)=O)ccc32)cc1 [Compound 1]			irreversible loss of enzyme activity
COc1ccc(OC(=O)n2c(=O)oc3ccc(Cl)cc32)cc1 [Compound 3]	18 µM		
O=C(Oc1ccccc1)n1c(=O)oc2cc([N+](=O)[O-])ccc21 [Compound 4]	60 µM		
